Test [1] concerns mixed bacterial inoculum (Pseudomonas aeruginosa, Enterobacter cloacae, Escherichia coli, Acinetobacter calcoaceticus). The experiment in a line: Repeated inoculation of standard acrylic paint, streak plate rating. Format: cell-based. The following applies: Set Three, DDM 1200 ppm. On the procedure: In the following experiments, a pyrithione, an isothiazolinone, and a biocide enhancing agent in accordance with the present disclosure were combined with a standard acrylic paint. The concentrations of the pyrithione, the isothiazolinone and the biocide enhancing agent were varied. The pyrithione, the isothiazolinone and the biocide enhancing agent were added alone and in various mixtures to the standard acrylic paint.
The acrylic paint was then inoculated three times using a mixed bacterial inoculum. The bacterial inoculum, which comprised a bacterial suspension in water, contained the following four bacteria in equal proportions.
The samples were streak plated at 24, 48, and 72 hours after inoculation. The streak plates were rated as follows;

The test system of test [2] is Pseudomonas aeruginosa ATCC 15442. The experiment in a line: Minimum Inhibitory Concentration (MIC) test, 96 well microtiter plate. Format: cell-based. On the procedure:
Microorganisms: Pseudomonas aeruginosa ATCC 15442
MIC set up: A 96 well microtiter plate Minimum Inhibitory Concentration (MIC) test was run in broth suitable for the test organism. Serially diluted actives were prepared in sterilized water, and the start-up concentration varied depending on the efficacy range. Inocula prepared in 2× suitable broth was added into each well, and the final concentrations of bacteria were adjusted to approximately 5×10^5.

Take `CCCCCCCCCCCCN1CCOCC1` [DDM, 4-Dodecylmorpholine]: the streak plate rating in test [1] (1st inoculation 24 h), in test [1] (1st inoculation 48 h), in test [1] (1st inoculation 72 h), in test [1] (2nd inoculation 24 h), in test [1] (2nd inoculation 48 h) and in test [1] (2nd inoculation 72 h) was 5 (>45 viable microorganisms Severely contaminated) in each case. The streak plate rating in test [1] (3rd inoculation 24 h), in test [1] (3rd inoculation 48 h) and in test [1] (3rd inoculation 72 h) was 5 (>45 viable microorganisms Severely contaminated) each time.
`CCCCCCCCCCCCCCCCCCN(C)C` [DMODA, N,N-Dimethyloctadecylamine]: the “biocide enhancing effect on zinc pyrithione” value in test [2] (MIC of blends with ZnPT, Table 1) is reported as “enhance the effectiveness of the zinc pyrithione”. In addition, the MIC (in general, the least concentration at which growth counts as inhibited) in test [2] (Pseudomonas aeruginosa, ATCC15442, single chemical) is over 640 µg/mL.
